Measured values reported in patent publication US9808466B2, “Macrocyclic compounds as protein kinase inhibitors” (Fundación Centro Nacional de Investigaciones Oncologicas …, priority 2011, dated 2017).
Like-named read-outs stand apart in the source and are kept apart here.

Columns and labels:
PI3K (p110α/p85α) = biological target: T1, PI3K (p110α/p85α) (Homo sapiens, UniProt P42336); experiment: PI3K activity assay (ADP Hunter Plus); type: biochemical
T1 construct: purchased Carna Biosciences 07CBS-0402A
Protocol: The kinase activity was measured by using the commercial ADP Hunter™ Plus assay available from DiscoveRx (#33-016), which is a homogeneous assay to measure the accumulation of ADP, a universal product of kinase activity. […] Reaction was carried out for 1 hour at 25° C. Reagent A and B were sequentially added to the wells and plates were incubated for 30 min at 37° C. Fluorescence counts were read in a Victor instrument (Perkin Elmer) with the recommended settings (544 and 580 nm as excitation and emission wavelengths, respectively). Values were normalized against the control activity included for each enzyme (i.e., 100% PI3 kinase activity, without compound). These values were plotted against the inhibitor concentration and were fit to a sigmoid dose-response curve by using the Graphad software.

mTOR = biological target: T2, mTOR (Homo sapiens, UniProt P42345); experiment: mTOR assay (LanthaScreen kinase activity assay); type: biochemical
T2 construct: purchased Invitrogen PV4754
Protocol: The enzymatic mTOR activity was measured using a LanthaScreen™ kinase activity assay (Invitrogen). The enzyme was purchased from Invitrogen (PV4754), as well as the GFP-labeled substrate (4EBP1-GFP; PV4759) and the Tb-anti-p4EBP1(pThr46) antibody (PV4757). The assay was performed in 50 mM HEPES buffer, pH 7.5, containing 1.5 mM MnCl2, 10 mM MgCl2, 1 mM EGTA, 2.5 mM DTT and 0.01% Tween-20. The concentration of the assay components were the following: 0.24 nM mTOR kinase, 400 nM 4EBP1-GFP, […] and serial dilutions of the compound (inhibitor) to be evaluated. After 1 h incubation at room temperature, 20 mM EDTA was used to stop the reaction and terbium-labeled antibody (4 nM) added to detect phosphorylated product. The antibody associates with the phosphorylated product resulting in an increased TR-FRET value. The TR-FRET value (a dimensionless number) was calculated as the ratio of the acceptor signal (GFP, emission at 520 nm) to the donor signal (terbium, emission at 495 nm). Values were plotted against the inhibitor concentration and fitted to a sigmoid dose-response curve using GraphPad software.

PIM-1 = biological target: T3, PIM-1 (Homo sapiens, UniProt P11309); experiment: PIM-1 biochemical assay (ADP Hunter)
T3 construct: histidine tag (C); made in house
Text: The biochemical assay to measure PIM-1 activity relies on the ADP Hunter assay kit (DiscoveRx Corp., Cat. #90-0077), that determines the amount of ADP as direct product of the kinase enzyme activity.
The enzyme has been expressed and purified in-house as a recombinant human protein with a C-terminal histidine tag. The protein is active and stable.
Assay conditions were as indicated by the kit manufacturers with the following adaptations for the kinase activity step: • Kinase assay buffer and assay volume stay as recommended (15 mM HEPES, pH 7.4, 20 mM NaCl, 1 mM EGTA, 0.02% Tween 20, 10 mM MgCl2 and 0.1 mg/ml bovine γ-globulins/75 μl assay volume) • Incubation time and temperature: 60 min at 30° C. • PIM-1 concentration: 50 pg/μl • ATP concentration: 100 μM • PIM-1 substrate peptide: PIMtide ([…]) (SEQIDNO. 1) • Peptide concentration: 60 μM • Positive control for kinase activity inhibition: 1-10 μM Staurosporine • DMSO concentration have to stay below 2% during the kinase reaction
Assays were performed in either 96 or 384-well plates. The final outcome of the coupled reactions provided by the kit is the release of the fluorescent product Resorufin and has been measured with a multilabel HTS counter VICTOR V (PerkinElmer) using an excitation filter at 544 nm and an emission filter at 580 nm.

[1] = read-out: PI3K alpha activity, IC50 (semi-quantitative class)
[2] = read-out: mTOR activity, IC50 (semi-quantitative class)
[3] = PIM1, read-out: PIM-1 activity, IC50 (semi-quantitative class)
[4] = read-out: PI3K alpha IC50 (in parentheses)
[5] = read-out: PI3K alpha activity (semi-quantitative IC50)
[6] = read-out: mTOR activity (semi-quantitative IC50)
[7] = read-out: PIM-1 activity (semi-quantitative IC50)
[8] = read-out: PI3K alpha actual IC50 (in parentheses)
[9] = read-out: mTOR actual IC50 (in parentheses)
[10] = PIM1, read-out: PIM-1 actual IC50 (in parentheses)

T2 sequence (P42345 1360-2549 limits assumed): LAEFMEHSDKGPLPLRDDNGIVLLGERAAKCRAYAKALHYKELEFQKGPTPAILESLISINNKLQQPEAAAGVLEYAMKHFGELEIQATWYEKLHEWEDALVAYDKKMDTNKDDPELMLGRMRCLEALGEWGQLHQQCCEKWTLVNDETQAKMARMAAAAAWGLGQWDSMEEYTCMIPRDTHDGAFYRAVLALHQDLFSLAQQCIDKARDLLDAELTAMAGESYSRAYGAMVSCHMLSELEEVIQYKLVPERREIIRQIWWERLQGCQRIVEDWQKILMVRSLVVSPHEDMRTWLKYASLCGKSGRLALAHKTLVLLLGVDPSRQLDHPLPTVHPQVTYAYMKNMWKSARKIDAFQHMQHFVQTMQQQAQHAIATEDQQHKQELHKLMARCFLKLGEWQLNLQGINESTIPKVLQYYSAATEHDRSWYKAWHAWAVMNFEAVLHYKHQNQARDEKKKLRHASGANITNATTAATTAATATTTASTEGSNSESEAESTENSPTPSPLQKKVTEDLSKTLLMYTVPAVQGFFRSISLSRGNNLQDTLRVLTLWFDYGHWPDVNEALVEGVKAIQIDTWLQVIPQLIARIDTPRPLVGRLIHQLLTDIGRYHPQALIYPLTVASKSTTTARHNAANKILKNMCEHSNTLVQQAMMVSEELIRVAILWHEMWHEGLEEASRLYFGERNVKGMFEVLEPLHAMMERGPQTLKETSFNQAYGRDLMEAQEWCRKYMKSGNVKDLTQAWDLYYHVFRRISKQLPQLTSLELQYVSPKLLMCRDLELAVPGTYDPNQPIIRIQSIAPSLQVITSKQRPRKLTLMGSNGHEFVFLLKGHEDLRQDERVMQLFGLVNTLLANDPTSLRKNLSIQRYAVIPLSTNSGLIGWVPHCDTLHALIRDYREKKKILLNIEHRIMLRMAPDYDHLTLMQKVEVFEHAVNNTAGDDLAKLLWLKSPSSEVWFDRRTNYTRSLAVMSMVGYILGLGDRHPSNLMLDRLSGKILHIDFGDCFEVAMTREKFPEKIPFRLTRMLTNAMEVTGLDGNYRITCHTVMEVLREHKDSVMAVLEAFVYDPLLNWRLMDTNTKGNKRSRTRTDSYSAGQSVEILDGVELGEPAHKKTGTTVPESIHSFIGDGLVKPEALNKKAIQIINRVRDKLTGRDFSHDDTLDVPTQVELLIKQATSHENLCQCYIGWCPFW
T1 sequence (P42336 whole entry): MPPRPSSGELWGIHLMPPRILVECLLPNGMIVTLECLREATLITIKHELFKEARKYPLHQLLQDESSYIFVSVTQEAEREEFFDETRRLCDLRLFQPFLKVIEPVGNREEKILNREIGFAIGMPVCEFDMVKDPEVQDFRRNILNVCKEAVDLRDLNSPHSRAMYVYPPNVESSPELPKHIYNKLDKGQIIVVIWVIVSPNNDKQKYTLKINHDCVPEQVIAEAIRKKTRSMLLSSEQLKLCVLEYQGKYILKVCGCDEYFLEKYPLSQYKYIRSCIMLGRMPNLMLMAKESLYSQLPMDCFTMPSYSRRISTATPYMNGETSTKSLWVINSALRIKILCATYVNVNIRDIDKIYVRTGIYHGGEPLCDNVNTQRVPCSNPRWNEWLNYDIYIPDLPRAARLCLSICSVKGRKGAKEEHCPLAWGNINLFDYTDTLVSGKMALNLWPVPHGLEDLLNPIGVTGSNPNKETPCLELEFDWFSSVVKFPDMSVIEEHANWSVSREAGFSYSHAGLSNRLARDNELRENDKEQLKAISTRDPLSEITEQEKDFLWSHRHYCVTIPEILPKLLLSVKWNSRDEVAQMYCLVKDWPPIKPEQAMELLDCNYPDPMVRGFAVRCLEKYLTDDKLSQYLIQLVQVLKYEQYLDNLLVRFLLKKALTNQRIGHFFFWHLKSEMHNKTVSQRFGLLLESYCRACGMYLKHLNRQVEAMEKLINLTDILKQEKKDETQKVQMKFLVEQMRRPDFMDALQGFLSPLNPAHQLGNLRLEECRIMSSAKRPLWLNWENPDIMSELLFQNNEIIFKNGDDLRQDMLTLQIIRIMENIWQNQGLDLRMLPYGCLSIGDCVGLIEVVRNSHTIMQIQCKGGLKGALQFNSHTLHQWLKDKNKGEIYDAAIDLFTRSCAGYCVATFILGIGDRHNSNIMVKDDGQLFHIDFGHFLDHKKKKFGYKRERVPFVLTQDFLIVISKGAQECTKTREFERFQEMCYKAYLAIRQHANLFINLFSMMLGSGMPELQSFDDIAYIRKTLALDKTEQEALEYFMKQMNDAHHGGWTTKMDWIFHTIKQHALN
T1 sequence (P27986 whole entry partner): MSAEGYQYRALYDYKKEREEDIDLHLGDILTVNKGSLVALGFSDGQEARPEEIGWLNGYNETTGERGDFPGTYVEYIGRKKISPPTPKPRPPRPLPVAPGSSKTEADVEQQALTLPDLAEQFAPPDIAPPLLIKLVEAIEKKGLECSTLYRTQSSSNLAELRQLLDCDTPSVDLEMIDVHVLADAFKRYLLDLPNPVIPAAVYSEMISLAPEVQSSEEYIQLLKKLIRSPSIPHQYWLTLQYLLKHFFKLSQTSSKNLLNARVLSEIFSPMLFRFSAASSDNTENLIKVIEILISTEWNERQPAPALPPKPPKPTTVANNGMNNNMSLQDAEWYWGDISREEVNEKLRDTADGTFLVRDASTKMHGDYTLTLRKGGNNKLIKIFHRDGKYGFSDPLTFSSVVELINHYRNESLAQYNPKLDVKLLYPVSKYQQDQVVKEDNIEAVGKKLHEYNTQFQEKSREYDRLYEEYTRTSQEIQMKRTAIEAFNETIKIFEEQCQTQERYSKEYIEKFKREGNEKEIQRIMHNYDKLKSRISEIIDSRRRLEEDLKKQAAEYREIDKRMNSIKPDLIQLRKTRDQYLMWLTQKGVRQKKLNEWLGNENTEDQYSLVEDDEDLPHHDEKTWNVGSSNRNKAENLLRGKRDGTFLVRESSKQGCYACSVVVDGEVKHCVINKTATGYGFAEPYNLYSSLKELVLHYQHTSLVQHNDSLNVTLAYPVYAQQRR
T3 sequence (P11309 whole entry): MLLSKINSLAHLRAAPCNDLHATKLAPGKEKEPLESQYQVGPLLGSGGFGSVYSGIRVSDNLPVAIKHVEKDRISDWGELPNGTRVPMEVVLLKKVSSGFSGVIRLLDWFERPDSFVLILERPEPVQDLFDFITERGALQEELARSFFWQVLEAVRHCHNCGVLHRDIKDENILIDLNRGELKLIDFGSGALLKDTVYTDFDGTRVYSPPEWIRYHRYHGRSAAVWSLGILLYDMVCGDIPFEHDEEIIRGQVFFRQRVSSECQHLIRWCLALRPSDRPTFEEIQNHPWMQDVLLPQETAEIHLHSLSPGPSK

SMILES: COc1ncc2cc1NS(=O)(=O)c1cccc(c1)C(=O)NCCn1cc(cn1)-c1ncnc3c1OC2=C3 [compound 51]
- IC50 (PI3K (p110α/p85α); [1]): 100 to 1000 nM
- IC50 (mTOR; [2]): > 1000 nM
- IC50 (PIM-1; [3]): > 1000 nM

SMILES: COc1ncc2cc1NS(=O)(=O)c1ccc(Cl)c(c1)C(=O)NCC1=CC=C(S1)c1ncnc3c1SC2=C3 [compound 98]
- IC50 (PI3K (p110α/p85α); [4]): 37 nM
- IC50 (PI3K (p110α/p85α); [5]): < 100 nM
- IC50 (mTOR; [6]): > 1000 nM
- IC50 (PIM-1; read-out: PIM-1 IC50 (in parentheses)): 13 nM
- IC50 (PIM-1; [7]): < 100 nM

SMILES: COc1ncc2cc1NS(=O)(=O)c1cccc(c1)C(=O)NCCCCNc1ccnc3ccc-2cc13 [compound 7]
- IC50 (PI3K (p110α/p85α); [1]): > 1000 nM
- IC50 (mTOR; [2]): > 1000 nM
- IC50 (PIM-1; [3]): > 1000 nM

SMILES: O=C1NCc2cccc(c2)-c2cnn3ccc(nc23)-c2cnc(O)c(c2)NS(=O)(=O)c2cccc1c2 [compound 85]
- IC50 (PI3K (p110α/p85α); [5]): 100 to 1000 nM
- IC50 (mTOR; [6]): > 1000 nM
- IC50 (PIM-1; [7]): > 1000 nM

SMILES: COc1ncc2cc1NS(=O)(=O)c1cccc(c1)C(=O)NCCn1cc(cn1)-c1ccnc3ccc-2cc13 [compound 19]
- IC50 (PI3K (p110α/p85α); [1]): < 100 nM
- IC50 (PI3K (p110α/p85α); [8]): 4 nM
- IC50 (mTOR; [2]): < 100 nM
- IC50 (mTOR; [9]): 21 nM
- IC50 (PIM-1; [3]): > 1000 nM

SMILES: COc1ncc2cc1NS(=O)(=O)c1cccc(c1)C(=O)NCc1cncc(c1)-c1ncnc3sc-2cc13 [compound 21]
- IC50 (PI3K (p110α/p85α); [1]): < 100 nM
- IC50 (PI3K (p110α/p85α); [8]): 85 nM
- IC50 (mTOR; [2]): > 1000 nM
- IC50 (PIM-1; [3]): 100 to 1000 nM

SMILES: COc1ncc2cc1NS(=O)(=O)c1cccc(c1)C(=O)NCCn1cc(cn1)-c1cnc3ccc-2cn13 [compound 34]
- IC50 (PI3K (p110α/p85α); [1]): < 100 nM
- IC50 (PI3K (p110α/p85α); [8]): 7.6 nM
- IC50 (mTOR; [2]): < 100 nM
- IC50 (mTOR; [9]): 66 nM
- IC50 (PIM-1; [3]): > 1000 nM

SMILES: COc1ncc2cc1NS(=O)(=O)c1cccc(c1)C(=O)NCc1cncc(c1)-c1nc(C)nc3c1SC2=C3 [compound 54]
- IC50 (PI3K (p110α/p85α); [1]): 100 to 1000 nM
- IC50 (mTOR; [2]): > 1000 nM
- IC50 (PIM-1; [3]): > 1000 nM

SMILES: COc1ncc2cc1NS(=O)(=O)c1cccc(c1)C(=O)NCc1cc(F)cc(c1)-c1ncnc3c1SC2=C3C [compound 92]
- IC50 (PI3K (p110α/p85α); [4]): 15 nM
- IC50 (PI3K (p110α/p85α); [5]): < 100 nM
- IC50 (mTOR; [6]): > 1000 nM
- IC50 (PIM-1; [7]): > 1000 nM

SMILES: COCCOc1ccc2cc1C(=O)NCC1=CC=C(S1)c1ncnc3c1SC(=C3)c1cnc(OC)c(c1)NS2(=O)=O [compound 93]
- IC50 (PI3K (p110α/p85α); [5]): 100 to 1000 nM
- IC50 (mTOR; read-out: mTOR IC50 (in parentheses)): 32 nM
- IC50 (mTOR; [6]): < 100 nM
- IC50 (PIM-1; [7]): > 1000 nM

SMILES: COc1ncc2cc1NS(=O)(=O)c1cccc(c1)C(=O)NCc1cc(ccn1)-c1ncnc3c1SC2=C3 [compound 42]
- IC50 (PI3K (p110α/p85α); [1]): 100 to 1000 nM
- IC50 (mTOR; [2]): > 1000 nM
- IC50 (PIM-1; [3]): 100 to 1000 nM

SMILES: COc1ncc2cc1NS(=O)(=O)c1cccc(c1)C(=O)NC[C@@H]1CN(CCO1)c1ncnc3c1SC2=C3 [compound 66]
- IC50 (PI3K (p110α/p85α); [1]): 100 to 1000 nM
- IC50 (mTOR; [2]): > 1000 nM
- IC50 (PIM-1; [3]): < 100 nM
- IC50 (PIM-1; [10]): 88 nM

SMILES: COc1ncc2cc1NS(=O)(=O)c1cc(c(F)cc1F)C(=O)NCc1cncc(c1)-c1ncnc3c1SC2=C3 [compound 44]
- IC50 (PI3K (p110α/p85α); [1]): 100 to 1000 nM
- IC50 (mTOR; [2]): > 1000 nM
- IC50 (PIM-1; [3]): > 1000 nM

SMILES: O=C1NCc2cncc(c2)-c2ccnc3ccc(cc23)-c2cnc(O)c(c2)NS(=O)(=O)c2cccc1c2 [compound 2]
- IC50 (PI3K (p110α/p85α); [1]): 100 to 1000 nM
- IC50 (mTOR; [2]): > 1000 nM
- IC50 (PIM-1; [3]): > 1000 nM

SMILES: COc1ncc2cc1NS(=O)(=O)c1cccc(c1)C(=O)NCCn1cc(cn1)-c1cnn3ccc-2nc13 [compound 26]
- IC50 (PI3K (p110α/p85α); [1]): < 100 nM
- IC50 (PI3K (p110α/p85α); [8]): 4 nM
- IC50 (mTOR; [2]): < 100 nM
- IC50 (mTOR; [9]): 40 nM
- IC50 (PIM-1; [3]): > 1000 nM

SMILES: COc1ncc2cc1NS(=O)(=O)c1cc(cc(C(F)(F)F)c1)C(=O)NCc1cncc(c1)-c1ncnc3c1SC2=C3 [compound 53]
- IC50 (PI3K (p110α/p85α); [1]): > 1000 nM
- IC50 (mTOR; [2]): > 1000 nM
- IC50 (PIM-1; [3]): > 1000 nM

SMILES: COc1ncc2cc1NS(=O)(=O)c1ccc(F)c(c1)C(=O)NCC1=CC=C(S1)c1ncnc3c1SC2=C3 [compound 82]
- IC50 (PI3K (p110α/p85α); [1]): < 100 nM
- IC50 (PI3K (p110α/p85α); [8]): 57 nM
- IC50 (mTOR; [2]): > 1000 nM
- IC50 (PIM-1; [3]): < 100 nM
- IC50 (PIM-1; [10]): 13 nM
